# Measurements taken from patent publication US20230383291A1, “PEPTIDE-BASED TRANSDUCTION OF NON-ANIONIC POLYNUCLEOTIDE ANALOGS FOR GENE EXPRESSION MODULATION” (FELDAN BIO INC., priority 2020, published 2023).
# Columns and labels:
# [1] = test system: Gli1 protein; test: Gli1 knockdown in RH-30 cells, Western blot; format: cell-based, Human; conditions: 6 μM cargo with 5 μM FSD250, 2 minutes, 24 h
# Protocol: A Gli1 knock-down experiment was performed generally as described in Example 6 to compare shuttle agent-mediated transduction of an unmodified PMO versus a commercially available self-internalizing Vivo-Morpholino (VivoPMO), which is a PMO chemically modified with a terminal octa-guanidinium dendrimer to facilitate entry into cells. Briefly, RH-30 cells were contacted with a delivery mix of 6 μM of cargo (either PMO-Gli1 or VivoPMO-Gli1) in the presence or absence of 5 μM of the synthetic peptide shuttle agent FSD250 for 2 minutes in RPMI. Cells were then washed, incubated in complete medium and then collected for Gli1 protein expression analysis by Western blot after 24 h using an anti-Gli1 polyclonal Ab (Abcam ab273018, 150 kDa), an anti-GAPDH Ab (Abcam ab181602, 37 kDa), and anti-Rabbit HRP secondary Ab. […] Indeed, this is consistent with the manufacturer's recommended incubation time of 2-4 hours for VivoPMOs to achieve sufficient self-internalization via endocytosis. Regardless, the results in FIG. 10 highlight the vast difference in internalization kinetics between the slow endocytosis-dependent intracellular delivery of VivoPMOs versus the rapid and efficient PMO transduction observed using synthetic peptide shuttle agents.
# Four different PMOs were designed and synthesized targeting different regions proximal to the region or start codon of the human Gli1 gene. […]
# [2] = test system: Gli1 protein; test: Gli1 knock-down in DU145 cells, Western blot; format: cell-based, Human; conditions: 6 μM PMO
# Protocol: DU145 cells were trypsinized and plated (500 000 cells/well) in a 24 well-dish the day prior to the experiment. […] Cells were washed once with PBS and delivery mixes were added on cells for five minutes. Then, 2 mL of RPMI-1640 containing 10% FBS was added to the mix and removed. Untreated cells were incubated with RPMI-1640 only. Cells were incubated in fresh RPMI-1640 containing 10% FBS. Forty height hours later, medium was removed and cells were washed once with PBS prior to trypsinization. Cells were harvested, collected by centrifugation, washed, and resuspended with PBS. Then, PMO-FITC positive and PMO-FITC negative cells were sorted and collected by virtue of FACS (BD FACS Aria Fusion). FITC-positive and FITC-negative cell samples were collected by centrifugation and resuspended in 50 μL protein extraction RIPA buffer (150 mM NaCl, 1% Nonidet™ P-40, 0.1% SDS, 0.5% Sodium deoxycholate, 25 mM Tris). Total protein concentrations were measured with a BCA protein assay kit. For all conditions, 10 μg of proteins were prepared at a final volume of 40 μL with 4× Laemmeli and RIPA buffer. Protein samples were then heated at 90° C. and separated through an 8% SDS-PAGE gel. Proteins were then transferred over night (25 volts) onto a […] PVDF membrane. Membranes were blocked using a 5% bovine serum albumin, Tris Buffer Saline, 0.1% Tween® 20 solution (5% BSA/TBS-T) for an hour. After blocking, the membrane was incubated for an hour with a 5% BSA/TBS-T solution containing anti alpha-Actinin (D6F6) primary antibody at a 1:1000. Alpha-Actinin protein present in the cell lysates served as loading control. Subsequently, the membranes were incubated over night with a 5% BSA/TBS-T solution containing anti-Gli1 primary antibody diluted 1:500. The membrane was then subjected to a 1-hour incubation at 1:5000 dilution of HRP-conjugated goat anti-rabbit secondary antibody 5% BSA/TBS-T solution. Chemiluminescence detection was performed using Clarity™ Western ECL Substrate and a ChemiDoc™ XRS apparatus. Gli1 and Alpha-Actinin densitometry was assessed using ImageJ™ software. […]
substance,measurement,setting,value
PMO-Gli1: antisense PMO molecule designed to knock-down expression of the Gli1 protein; off-target control in the GFPd assay (antisense GTCATCGAGTTGAACATGGCGTCTC; all phosphorodiamidate morpholino (PMO)),Knockdown of Gli1 protein,[1],Knockdown of Gli1 protein
same,Gli1 protein expression,"[2]; 3.75 μM FSD250, 48 hours",knocked-down
same,Gli1 protein expression,"[2]; FITC+ cells vs FITC− cells, 5 μM FSD250, 48 hours",knocked-down
